In patent US8389544B2, “Isoquinolone compounds as subtype-selective agonists for melatonin receptors MT1 and MT2” (The Hong Kong University of Science and Technology, priority 2007, dated 2013):

Assays:
Format in all cases: cell-based
MT2/293 = assay: MTT cytotoxicity assay, MT2/293 cells; settings: percentage of untreated control cells
Method: This assay evaluates the cytotoxic effects of the novel isoquinolone compounds based on the cellular viability under chronic treatments. Viable cells but not dead cells can turn the substrate into a colored product, which yields higher absorbance. […] A low percentage indicates low cytoviability (or high cytotoxicity).
5. Cytotoxicity Test Using MTT Assay
Cells were seeded into clear 96-well plate at an appropriate density in 100 μl growth medium and were allowed to grow overnight. The novel isoquinolone compounds were diluted to desired concentrations using fresh growth medium, and these dilutions were used to replace the growth media in each well. After incubating for 24-96 h, 10 μl of the MTT labeling reagent (Roche) was added to each well and the cells were incubated in a CO2 incubator for 4 h. 100 μl solubilization buffer was then added into each well and incubated overnight for complete solubilization of the purple formazan crystals. […] Each condition was performed in triplicate in every experiment and the results were expressed as % of blank control±SD.

MT1 receptor = MT1 receptor (Homo sapiens, UniProt P48039); assay: CRE-Luc (luciferase reporter gene) assay, MT1; design: expressed in transfected cells; settings: HEK 293-pCREluc cells with MT1; inhibition of forskolin response
Sequence of MT1 receptor (P48039 whole entry): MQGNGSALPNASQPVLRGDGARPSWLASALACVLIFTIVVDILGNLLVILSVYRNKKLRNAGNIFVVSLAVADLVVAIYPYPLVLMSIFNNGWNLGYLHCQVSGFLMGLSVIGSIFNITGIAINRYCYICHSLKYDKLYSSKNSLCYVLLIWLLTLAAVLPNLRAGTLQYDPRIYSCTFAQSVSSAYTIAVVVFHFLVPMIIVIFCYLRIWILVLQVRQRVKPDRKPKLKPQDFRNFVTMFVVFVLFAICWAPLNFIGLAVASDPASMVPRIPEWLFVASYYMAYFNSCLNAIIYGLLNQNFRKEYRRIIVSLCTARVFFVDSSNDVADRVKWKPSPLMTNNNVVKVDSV
Method: The luciferase reporter gene assay offers another way to measure melatonin receptor activation. Cells expressing cAMP-responsive element-driven luciferase reporter gene (293-pCREluc) and either the MT1 or MT2 receptor are treated with forskolin (a substance which stimulates cAMP production as well as the subsequent luciferase gene expression) alone or with a novel isoquinolone compound. As melatonin receptor activation inhibits cAMP production, any suppression in the expression of luciferase leads to a decrease in enzymatic activities and a reduction in the amount of luminescence signal generated.
The luciferase assay, a reporter gene assay, was performed to confirm the ability of the invention to activate the melatonin receptors. Prior to the assay, HEK (human embryonic kidney) 293 cells are stably transfected with cAMP-responsive element-driven luciferase reporter gene (293-pCREluc) and cDNAs encoding MT1 or MT2 receptors. The cells are then exposed to the novel isoquinolone compounds, after which the substrate luciferin is added and the resulting luminescence measured.
Prior to the assay human embryonic kidney (HEK) 293 cells (CRL-1573, ATCC) is maintained at 37° C. in minimum essential medium (MEM) supplemented with 10% fetal bovine serum (FBS), 100 units/ml penicillin and 100 μg/ml streptomycin in a humidified atmosphere containing 5% CO2. Human embryonic kidney 293 cells stably transfected with cAMP-responsive element-driven luciferase reporter gene (293-pCREluc) are established and maintained in growth medium supplemented with 300 μg/ml G418 sulphate.
For luciferase assays, HEK-293 cells stably expressing pCRE-luciferase are seeded at a density of 15,000 cells/well into 96 well plates. Transfection is carried out using Lipofectamine Plus® reagent at 0.2 μl of both Plus and lipofectamine reagents with 50 ng cDNAs encoding MT1 or MT2 receptors per well. After a 3 hour transfection period at 37° C., 50 μl of DMEM with 20% fetal calf serum (FCS) is added into the wells and the plate is incubated at 37° C. for 48 h prior to 24 hour serum starvation. […]
Cells are harvested by replacing medium in the well by 50 μl luciferase lysis buffer. The Berthold microplate luminometer is maintained at 25° C. throughout the assay. Injector M connected to an empty tube and P connected to the drug tube are set to inject 25 μl of luciferin into appropriate wells. A 1.6 second delay time followed by a 1 second measuring time period is assigned to injector M, whereas injector P is measured for 10 seconds after luciferase substrate is introduced into the well. Results are expressed as relative luminescent units (RLU). Where indicated, agonist-induced activity is expressed as a percentage of the RLU obtained with forskolin.

MT2 receptor = biological target: T1, MT2 receptor (Homo sapiens, UniProt P49286); assay: ERK phosphorylation assay, MT2; design: expressed in transfected cells; settings: HEK293 cells; isoquinolone 1 μM or 2-iodomelatonin 100 nM, 5 min; against unstimulated control cells
T1 sequence (P49286 1-362): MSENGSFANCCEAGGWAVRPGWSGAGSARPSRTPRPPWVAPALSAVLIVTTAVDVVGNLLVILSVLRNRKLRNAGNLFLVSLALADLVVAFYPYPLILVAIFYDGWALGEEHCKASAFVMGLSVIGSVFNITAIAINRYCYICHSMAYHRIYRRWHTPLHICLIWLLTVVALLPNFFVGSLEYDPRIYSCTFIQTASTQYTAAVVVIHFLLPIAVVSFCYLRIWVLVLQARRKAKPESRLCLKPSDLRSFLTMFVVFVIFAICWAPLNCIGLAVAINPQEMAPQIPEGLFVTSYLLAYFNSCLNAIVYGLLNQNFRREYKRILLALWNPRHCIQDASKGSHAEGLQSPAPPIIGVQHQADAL
Excerpt: 3. ERK Phosphorylation Assay This assay indicates the ability of the novel compounds to activate MT1 or MT2 receptors by measuring downstream events of the activated receptor, in this case ERK phosphorylation. The amount of phosphorylated ERK1/2 was detected and quantified in western blots. The data in Table 2 is expressed as the fold stimulation against the unstimulated control cells. 6. Detection of ERK phosphorylation […] Stimulation was terminated by aspiration on ice and immediate lysis by 200 μl of 1× protein gel loading buffer. Lysates were denatured by boiling for 5 min and cooled at room temperature until loading. 30 μl of each lysate was separated on 12% SDS-PAGE and transferred to nitrocellulose membrane by electroblotting. Success of transfer was visualized by Ponceau S staining. All subsequent incubations were under gentle agitation (˜100 strokes/min). […] Primary antisera against phosphorylated- or total-ERK1/2 were incubated with the blocked membrane at an appropriate dilution (1:4000-1:2000) in Blotto for overnight at 4° C. The membrane was washed with fresh Blotto for 3 times of 15 min each, then incubated with secondary antiserum (horseradish peroxidase-conjugated anti-rabbit IgG) at the dilution of 1:1000 in 1×TBS for 1 h at room temperature. The membrane was quickly rinsed with excessive 1×TBS for 3 times, and followed by 4 washes of 1×TBS for 10 min. By the end, a premix of luminol-based chemiluminescence substrate solution was prepared (1 ml for every 8 cm^2 of membrane) and overlaid onto the washed membrane to incubate for 1 min. After removing excessive solution, the membrane was covered with saran wrap and an autograph with appropriate exposure was developed on X-ray film in dark room. The image was scanned and the band intensities quantified using ImageJ 1.34. Data was expressed as the percentage response of the vehicle-treated or untreated samples. Experiments were performed at least 3 times and the average responses±SEM were presented.

Compound | MTT Assay MT2/293 % Viability ± SEM (MT2/293) [%] | CRE-Luc Assay MT1 % Inh ± SEM of 1 μM Fsk (MT1 receptor) [%] | ERK Phosphorylation MT2 Fold Stim. (MT2 receptor) [Fold]
COc1cccc(COc2cc3ccn(C)c(=O)c3cc2OC)c1 [IS044] | 112.5 ± 3.8 | 82.3 ± 6.0 | 3.50
COc1cccc(COc2c(OC)ccc3c(=O)n(C)ccc23)c1 [IS527] | 46.8 ± 0.2 | 82.4 ± 6.4 | 2.21
COc1cc(COc2cc3ccn(C)c(=O)c3cc2OC)cc(OC)c1 [IS042] | 56.3 ± 1.5 | 73.9 ± 7.8 | 5.59
COc1ccc2c(=O)n(C)ccc2c1OCc1ccc(C)cc1 [IS529] | 48.5 ± 1.6 | 67.7 ± 5.4 | 1.23
COc1cccc(COc2cc3c(=O)n(C)ccc3cc2OC)c1 [IS521] | 90.5 ± 11.7 | 84.2 ± 5.5 | 3.01
Cn1ccc2cc(OC(=O)c3ccccc3)c(OC(=O)c3ccccc3)cc2c1=O [IS039] | 117.6 ± 9.0 | 73.0 ± 5.0 | 1.98
COc1cc(COc2cc3c(=O)n(C)ccc3cc2OC)cc(OC)c1 [IS523] | 46.2 ± 3.7 | 70.4 ± 5.6 | 2.07
COc1cc2ccn(C)c(=O)c2cc1OCc1ccc(C(C)(C)C)cc1 [IS526] | 24.7 ± 1.6 | 36.2 ± 11.8 | 
COc1cc(COc2c(OC)ccc3c(=O)n(C)ccc23)cc(OC)c1 [IS528] | 42.4 ± 1.3 | 69.7 ± 10.1 | 1.71
